The test system of experiment [1] is stress-induced bowel movement. Conditions: various animals, references 6-9; cited from earlier work.
In experiment [2] the test system is rat ileum peristalsis motility. The experiment is described as follows: rat exo-vivo ileum peristalsis. Conditions: isolated ileum of male SD rats, intraluminal pressure; FIG. 3. As to the method:
Male SD rats were used under non-fasting conditions. On the day of the test, 4-5 cm of the ileum was isolated, and the oral side end and aboral side end were subjected to cannulation. 95% oxygen/5% carbon dioxide was passed therethrough and placed horizontally in a bath filled with a Krebs solution warmed to 37° C. A tube outflux on the aboral side was set at about 4 cm higher than the bath, 95% oxygen/5% carbon dioxide was passed from the tube on the oral side and perfused with a Krebs solution warmed to 37° C. at a flow rate of 10 cc/hr to induce peristalsis motility. Changes of the intraluminal pressure of the intestine due to the peristalsis motility of the ileum were recorded by a transducer from the tube on the oral side. A compound at various concentrations was added to the Krebs solution surrounding the ileum. When a compound at various concentrations was added, the Krebs solution was exchanged immediately before the addition.

Experiment [3] deals with restraint stress-induced bowel movement, male C57BL/6 mice. The experiment is described as follows: mouse restraint stress-induced bowel movement. It is filed as in vivo. Conditions: intraperitoneal; for suppression of restraint stress-induced bowel movement: 10 min before stress loading, excreted feces in 2 hr, FIG. 2. As to the method:
Male C57BL/6 mice were used under non-fasting conditions. On the day of the test, the body weight was measured, and the mice were individually bred for 2 hr. Thereafter, the mice were placed in a mouse restraint stress cage, and the number of excreted feces in 2 hr was counted. The normal group was individually bred for 2 hr, and subsequently was bred under the same conditions, the number of excreted feces in 2 hr was counted. Each drug (same as in Example 1) was suspended in 0.5% methylcellulose, and intraperitoneally administered at a dose of 10 ml/kg 10 min before stress loading.

Another experiment addresses T1, mouse TGR5 (Mus musculus, UniProt Q80SS6).
T1 construct: expressed in transfected cells; host or cells: CHO cells, expression vector pAKKO-111H
T1 sequence (Q80SS6 1-329): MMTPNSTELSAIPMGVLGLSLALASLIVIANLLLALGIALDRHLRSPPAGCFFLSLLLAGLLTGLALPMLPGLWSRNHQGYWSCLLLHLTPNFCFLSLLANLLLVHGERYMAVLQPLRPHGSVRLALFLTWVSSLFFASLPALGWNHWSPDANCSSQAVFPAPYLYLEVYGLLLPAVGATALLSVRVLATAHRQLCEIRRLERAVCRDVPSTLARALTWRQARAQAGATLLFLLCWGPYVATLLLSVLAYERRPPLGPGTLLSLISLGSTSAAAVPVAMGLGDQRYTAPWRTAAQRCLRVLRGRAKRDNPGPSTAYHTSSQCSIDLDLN
The experiment is described as follows: cAMP production in CHO cell line expressing mouse TGR5 (CHO-mTGR5). It is filed as cell-based. On the procedure:
(§1) CHO cell line expressing mouse TGR5 (CHO-mTGR5), which was prepared by a method known per se and using the mouse TGR5 expression vector, was suspended in an assay medium (Hanks' Balanced Salt Solution (Invitrogen) added with 0.2 mM isobutylmethylxanthine and 0.1% bovine albumin) at 1×10^7 cells/ml and stood at room temperature for 30 min. Then, a compound diluted with the assay medium to each concentration was added, and the mixture was stood still at room temperature for 30 min, and the cAMP amount was measured according to the protocol of ALPHA SCREEN cAMP ASSAY KIT (Perkin Elmer). […] The EC50 value was calculated by using GraphPad PRISM (GraphPad software) from the amount of cAMP produced by each compound.
For orientation: cAMP levels reflect the balance of adenylyl cyclase and phosphodiesterase activity.

Another experiment has as its target T2, rat TGR5 (Rattus norvegicus, UniProt Q80T02).
T2 construct: expressed in transfected cells; host or cells: CHO cells
T2 sequence (Q80T02 1-329): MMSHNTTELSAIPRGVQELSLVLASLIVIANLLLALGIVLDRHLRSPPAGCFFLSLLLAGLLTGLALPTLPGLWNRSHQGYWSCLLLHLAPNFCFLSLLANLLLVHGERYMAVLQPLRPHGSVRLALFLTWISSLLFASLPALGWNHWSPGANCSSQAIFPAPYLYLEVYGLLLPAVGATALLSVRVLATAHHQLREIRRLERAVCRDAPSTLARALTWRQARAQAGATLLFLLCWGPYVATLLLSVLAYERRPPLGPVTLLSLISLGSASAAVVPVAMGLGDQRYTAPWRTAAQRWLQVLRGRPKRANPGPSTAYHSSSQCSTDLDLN
The experiment is described as follows: cAMP production in CHO cell line expressing rat TGR5 (CHO-rTGR5). It is filed as cell-based. As to the method: [The procedure below names another species; the source lists this species under the same test.] as §1

A further experiment addresses T3, human TGR5 (Homo sapiens, UniProt Q8TDU6).
T3 construct: expressed in transfected cells; host or cells: CHO cells
T3 sequence (Q8TDU6 1-330): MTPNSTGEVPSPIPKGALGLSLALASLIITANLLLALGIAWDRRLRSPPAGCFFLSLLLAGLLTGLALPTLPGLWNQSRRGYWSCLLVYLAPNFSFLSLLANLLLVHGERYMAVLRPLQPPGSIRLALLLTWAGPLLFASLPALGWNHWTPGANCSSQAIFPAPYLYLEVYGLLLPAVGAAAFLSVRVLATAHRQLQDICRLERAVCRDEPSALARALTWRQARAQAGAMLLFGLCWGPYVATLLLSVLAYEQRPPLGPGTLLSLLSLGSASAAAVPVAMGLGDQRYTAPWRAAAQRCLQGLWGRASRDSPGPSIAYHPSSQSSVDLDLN
The experiment is described as follows: cAMP production in CHO cell line expressing human TGR5 (CHO-hTGR5). It is filed as cell-based. As to the method:
[The procedure below names another species; the source lists this species under the same test.] as §1

Where [4] appears, read: CHO-rTGR5, cAMP production, read-out: EC50 value.
[5] abbreviates: CHO-hTGR5, cAMP production, read-out: EC50 value.
Where [6] appears, read: Table 8, rat TGR5, read-out: EC50 (M) Rat.

The source of these data is patent US20110136788A1, “THERAPEUTIC AGENT FOR IRRITABLE BOWEL SYNDROME” (priority 2008, published 2011).

In general, EC50 refers to the midpoint of the concentration-response curve.

Each structure is given as a SMILES string. Read-outs that look alike come from different tables or passages of the source.

With `Cc1[nH]cnc1CN1CCc2c(c3ccccc3n2C)C1=O` [Alosetron], the “suppression of stress-induced bowel movement” value in experiment [1] was “suppress stress-induced bowel movement”.
For the compound `O=C1COc2nccc(-c3ccccc3F)c2CN1Cc1cc(C(F)(F)F)cc(C(F)(F)F)c1` [Compound A, 4-[3,5-bis(trifluoromethyl)benzyl]-6-(2-fluorophenyl)-4,5-dihydropyrido[3,2-f][1,4]oxazepin-3(2H)-one], in experiment [2], the “suppression of peristalsis motility of the ileum” value (from here on “suppression … of the ileum”) is reported as “suppressed the peristalsis motility of the ileum in a dose-dependent manner”. In experiment [3] (dose 30 mg/kg), the “suppressive action on the restraint stress-induced bowel movement” value (shortened to “suppressive action”) is given as “statistically significant suppressive action”. In addition, the “suppression of restraint stress-induced bowel movement” value in experiment [3] is “suppressed a restraint stress-induced bowel movement in a dose-dependent manner”.
As to `CC(c1cc(C(F)(F)F)cc(C(F)(F)F)c1)N1Cc2c(-c3ccccc3F)ccnc2OCC1=O` (centres unmarked) [Compound B, 4-{1-[3,5-bis(trifluoromethyl)phenyl]ethyl}-6-(2-fluorophenyl)-4,5-dihydropyrido[3,2-f][1,4]oxazepin-3(2H)-one], the concentration giving a half-maximal response (EC50) on mouse TGR5 worked out at 25 nM; on rat TGR5 (setting [4]), 2.4e-09 M; on human TGR5 (setting [5]) it was 6.2e-10 M. In addition, the “suppressive action” value in experiment [3] (dose 30 mg/kg) was “statistically significant suppressive action”. The “suppression of restraint stress-induced bowel movement” value in experiment [3] was “suppressed a restraint stress-induced bowel movement in a dose-dependent manner”.
As to `CN1C(=O)C(C)(C)N(C(=O)COc2cccc3cnccc23)c2ccc(F)cc21` [Compound C, 7-fluoro-4-[(isoquinolin-5-yloxy)acetyl]-1,3,3-trimethyl-3,4-dihydroquinoxalin-2(1H)-one], the EC50 on mouse TGR5 was found to be 25 nM; at rat TGR5 (setting [4]), 9.9e-09 M; at rat TGR5 (setting [6]) it was 9.9e-09 M; at human TGR5 (setting [5]) it was 2.1e-09 M. Moreover, the “suppressive action” value in experiment [3] (dose 10 mg/kg) and in experiment [3] (dose 30 mg/kg) was “statistically significant suppressive action” each time. Also, the “suppression of restraint stress-induced bowel movement” value in experiment [3] was “suppressed a restraint stress-induced bowel movement in a dose-dependent manner”.
Take `CC(c1cc(C(F)(F)F)cc(C(F)(F)F)c1)N1CCOc2nccc(-c3ccccc3)c2C1.Cl` (centres unmarked) [Compound D, 4-{1-[3,5-bis(trifluoromethyl)phenyl]ethyl}-6-phenyl-2,3,4,5-tetrahydropyrido[3,2-f][1,4]oxazepine hydrochloride]: the EC50 at mouse TGR5 was determined as 730 nM; on rat TGR5 (setting [4]), 1.2e-07 M; at rat TGR5 (setting [6]), 1.2e-07 M; on human TGR5 (setting [5]) it was 1.6e-09 M. Also, the “suppression … of the ileum” value in experiment [2] is “suppressed the peristalsis motility of the ileum in a dose-dependent manner”. Further, the “suppressive action” value in experiment [3] (dose 3 mg/kg), in experiment [3] (dose 10 mg/kg) and in experiment [3] (dose 30 mg/kg) was “statistically significant suppressive action” each time. The “suppression of restraint stress-induced bowel movement” value in experiment [3] was “suppressed a restraint stress-induced bowel movement in a dose-dependent manner”.
On to `O=C1COc2nccc(-c3ccccc3O)c2CN1Cc1cc(C(F)(F)F)cc(C(F)(F)F)c1` [Compound E, 4-[3,5-bis(trifluoromethyl)benzyl]-6-(2-hydroxyphenyl)-4,5-dihydropyrido[3,2-f][1,4]oxazepin-3(2H)-one], for which the “suppression … of the ileum” value in experiment [2] is “suppressed the peristalsis motility of the ileum in a dose-dependent manner”. Further, the EC50 on rat TGR5 (setting [4]) was 3.2e-07 M; on human TGR5 (setting [5]), 2.4e-07 M; at human TGR5 (Table 8, human TGR5, read-out: EC50 (M) Human) it was 2.4e-07 M.
